Experiments:
[1] = tested on: Middle East respiratory syndrome-related coronavirus; experiment: Antiviral activity against MERS-CoV; assay type: functional, organism-based
[2] = tested on: SARS-CoV-2; assay type: functional, organism-based, Vero E6; details: Severe acute respiratory syndrome coronavirus 2, Vero C1008, 72 h
[3] = tested on: SARS-CoV-2; assay type: functional, Severe acute respiratory syndrome coronavirus 2, Vero E6; details: time 72 hrs
[4] = molecular target: Replicase polyprotein 1ab (Severe acute respiratory syndrome coronavirus 2, UniProt P0DTD1); experiment: Inhibition of SARS-CoV-2 M-protease
[5] = tested on: SARS-CoV-2; assay type: functional, organism-based, Vero E6; details: Severe acute respiratory syndrome coronavirus 2, Vero C1008
[6] = tested on: SARS-CoV-2; assay type: functional, organism-based; details: Severe acute respiratory syndrome coronavirus 2, A549-ACE2
[7] = tested on: SARS-CoV; experiment: Antiviral activity against SARS-CoV in 24 hrs pretreated primary human liver spheroids assessed as reduction in viral load at 400 to 500 nM measured after 48 hrs; assay type: functional, Severe acute respiratory syndrome-related coronavirus; parameters: scale not given: the % may be the effect or the level left; details: dose 400-500 nM, time 72 hrs
[8] = tested on: Middle East respiratory syndrome-related coronavirus; experiment: Antiviral activity against MERS-CoV infected in 1 hr pretreated human Huh-7 cells assessed as inhibition of viral growth at 10 uM measured after 48 hrs by plaque reduction assay relative to control; assay type: functional; details: time 49 hrs
[9] = tested on: SARS-CoV-2; experiment: microbe, parasite or virus in culture; details: Severe acute respiratory syndrome coronavirus 2
[10] = tested on: Murine coronavirus; experiment: Antiviral activity against mCoV; assay type: functional, organism-based
[11] = in vitro; details: human, Huh-7 cells
[12] = tested on: Middle East respiratory syndrome-related coronavirus; experiment: microbe, parasite or virus in culture; details: Huh-7, 72 h
[13] = tested on: Human coronavirus 229E; experiment: Antiviral activity against hCoV-229e at 4 uM assessed as reduction of viral RNA relative to control; assay type: functional; parameters: scale not given: the % may be the effect or the level left

Cn1nc(C(C)(C)C)cc1NC(=O)Nc1ccc(Oc2ccncc2)cc1
IC50 [1]: 4630 nM

CCN1CCN(Cc2ccc(Nc3ncc(F)c(-c4cc(F)c5nc(C)n(C(C)C)c5c4)n3)nc2)CC1 [ABEMACICLIB]
EC50 [2]: 2160 nM
Activity [3]: 60%

O=C1Cc2c([nH]c3ccc([N+](=O)[O-])cc23)-c2ccccc2N1 [ALSTERPAULLONE]
IC50 [4]: 1500 nM

Cc1cccc(/C=N/Nc2cc(N3CCOCC3)nc(OCCc3ccccn3)n2)c1 [APILIMOD]
IC50 [5]: < 80 nM
IC50 [6]: 7 nM

CC(C)Cn1ncc2cc(Oc3ccc(F)cc3F)c(C(=O)NCCN(C)C)cc21 [ARRY-797]
IC50 [1]: 913 nM

CNS(=O)(=O)Nc1nccc(Cc2c(C)c3ccc(Oc4ncccn4)cc3oc2=O)c1F [AVUTOMETINIB]
IC50 [2]: 600 nM

CCS(=O)(=O)N1CC(CC#N)(n2cc(-c3ncnc4[nH]ccc34)cn2)C1 [BARICITINIB]
Activity [7]: 30%

CCc1cnn2c(NCc3ccc[n+]([O-])c3)cc(N3CCCC[C@H]3CCO)nc12 [DINACICLIB]
IC50 [5]: 270 nM
IC50 [6]: 32 nM

CO[C@H]1C[C@@H]2CC[C@@H](C)[C@@](O)(O2)C(=O)C(=O)N2CCCC[C@H]2C(=O)O[C@H]([C@H](C)C[C@@H]2CC[C@@H](OCCO)[C@H](OC)C2)CC(=O)[C@H](C)/C=C(\C)[C@@H](O)[C@@H](OC)C(=O)[C@H](C)C[C@H](C)/C=C/C=C/C=C/1C [EVEROLIMUS]
inhibition at 10 µM [8]: 56%

CCc1nc(C(N)=O)c(Nc2ccc(N3CCC(N4CCN(C)CC4)CC3)c(OC)c2)nc1NC1CCOCC1 [GILTERITINIB]
IC50 [1]: 807 nM
IC50 [9]: 807 nM

CC(C)=CCC[C@](C)(O)[C@H]1CC[C@]2(C)[C@@H]1[C@H](O)C[C@@H]1[C@@]3(C)CC[C@H](O)C(C)(C)[C@@H]3[C@@H](O[C@@H]3O[C@H](CO)[C@@H](O)[C@H](O)[C@H]3O[C@@H]3O[C@H](CO)[C@@H](O)[C@H](O)[C@H]3O)C[C@]12C [GINSENOSIDE RF]
IC50 [10]: 10000 nM

O=C1Cc2c([nH]c3ccc(Br)cc23)-c2ccccc2N1 [KENPAULLONE]
IC50 [4]: 1500 nM

NC(=O)N1CCC(CC(=O)N2CCC([C@H]3c4ncc(Br)cc4CCc4cc(Cl)cc(Br)c43)CC2)CC1 [LONAFARNIB]
IC50 [2]: 4990 nM

CCCCCCCCCCCCCCCCOP(=O)([O-])OCC[N+](C)(C)C [MILTEFOSINE]
inhibition at 10 µM [8]: 28%

COc1ncc(-c2ccc3nccc(-c4ccnnc4)c3c2)cc1NS(=O)(=O)c1ccc(F)cc1F [OMIPALISIB]
IC50 [2]: 14 nM

C=CC(=O)Nc1cc(Nc2nccc(-c3cn(C)c4ccccc34)n2)c(OC)cc1N(C)CCN(C)C [OSIMERTINIB]
IC50 [2]: 3980 nM

CC(C)(C)Cn1c(N)nc2ccc(-c3[nH]c(C(C)(C)C)nc3-c3ccc(F)cc3)nc21 [RALIMETINIB]
IC50 [1]: 873 nM

CN1CCN(CCOc2cc(OC3CCOCC3)c3c(Nc4c(Cl)ccc5c4OCO5)ncnc3c2)CC1 [SARACATINIB]
CC50 [11]: > 50000 nM
EC50 [12]: 2900 nM

C[S+]([O-])c1ccc(-c2nc(-c3ccc(F)cc3)c(-c3ccncc3)[nH]2)cc1 (configuration not stated) [SB-203580]
Activity [13]: 60%

O=C(O)c1ccc2c(c1)nc(Nc1cccc(Cl)c1)c1ccncc12 [SILMITASERTIB]
IC50 [9]: 1280 nM

CO[C@H]1C[C@@H]2CC[C@@H](C)[C@@](O)(O2)C(=O)C(=O)N2CCCC[C@H]2C(=O)O[C@H]([C@H](C)C[C@@H]2CC[C@@H](O)[C@H](OC)C2)CC(=O)[C@H](C)/C=C(\C)[C@@H](O)[C@@H](OC)C(=O)[C@H](C)C[C@H](C)/C=C/C=C/C=C/1C [SIROLIMUS]
inhibition at 10 µM [8]: 40%

COC[C@H]1OC(=O)c2coc3c2[C@@]1(C)C1=C(C3=O)[C@@H]2CCC(=O)[C@@]2(C)C[C@H]1OC(C)=O [WORTMANNIN]
inhibition at 10 µM [8]: 40%

— ChEMBL document CHEMBL5131378, “Kinases as Potential Therapeutic Targets for Anti-coronaviral Therapy” (J Med Chem, 2022)
